From US20060205774A1, “4-(4-(Heterocyclylakoxy) phenyl-1-(heterocyclyl-carbonyl) piperidine derivavites and related compounds as histamine h3 antagonists for the treatment of neurological diseases such as alzheimer's” (priority 2003, published 2006)

Target: T1, histamine H3 receptor (Homo sapiens, UniProt Q9Y5N1)
T1 construct: expressed in transfected cells; host or cells: CHO K1 cells carrying pSwitch, transfected with pGeneH3, mifepristone-induced; clone 3H3; membrane preparation
Assay: Histamine H3 functional antagonist assay (GTPγS SPA on membranes)
Type: biochemical
Details: membranes of CHO K1 cells expressing human histamine H3; [35S]GTPγS; histamine 0.3 μM
Experimental: A membrane preparation containing histamine H3 receptors may be prepared in accordance with the following procedures:
Ligated DNA was transformed into competent DH5α E. coli host bacterial cells and plated onto Luria Broth (LB) agar containing Zeocin™ (an antibiotic which allows the selection of cells expressing the sh ble gene which is present on pGene and pSwitch) at 50 μg ml^−1. Colonies containing the re-ligated plasmid were identified by restriction analysis. DNA for transfection into mammalian cells was prepared from 250 ml cultures of the host bacterium containing the pGeneH3 plasmid and isolated using a DNA preparation kit (Qiagen Midi-Prep) as per manufacturers guidelines (Qiagen).
CHO K1 cells previously transfected with the pSwitch regulatory plasmid (InVitrogen) were seeded at 2×10e6 cells per T75 flask in Complete Medium, containing Hams F12 (GIBCOBRL, Life Technologies) medium supplemented with 10% v/v dialysed foetal bovine serum, L-glutamine, and hygromycin (100 μg ml^−1), 24 hours prior to use. Plasmid DNA was transfected into the cells using Lipofectamine plus according to the manufacturers guidelines (InVitrogen). 48 hours post transfection cells were placed into complete medium supplemented with 500 μg ml^−1 Zeocin™.
10-14 days post selection 10 nM Mifepristone (InVitrogen), was added to the culture medium to induce the expression of the receptor. […] Approximately 1×10e7 cells were examined for receptor expression by staining with a rabbit polyclonal antibody, 4a, raised against the N-terminal domain of the histamine H3 receptor, incubated on ice for 60 minutes, followed by two washes in sorting medium. […] Following two further washes with Sorting Medium, cells were filtered through a 50 μm Filcon™ (BD Biosciences) and then analysed on a FACS Vantage SE Flow Cytometer fitted with an Automatic Cell Deposition Unit. […] Positively stained cells were sorted as single cells into 96-well plates, containing Complete Medium containing 500 μg ml^−1 Zeocin™ and allowed to expand before reanalysis for receptor expression via antibody and ligand binding studies. […]

T1 sequence (Q9Y5N1 whole entry): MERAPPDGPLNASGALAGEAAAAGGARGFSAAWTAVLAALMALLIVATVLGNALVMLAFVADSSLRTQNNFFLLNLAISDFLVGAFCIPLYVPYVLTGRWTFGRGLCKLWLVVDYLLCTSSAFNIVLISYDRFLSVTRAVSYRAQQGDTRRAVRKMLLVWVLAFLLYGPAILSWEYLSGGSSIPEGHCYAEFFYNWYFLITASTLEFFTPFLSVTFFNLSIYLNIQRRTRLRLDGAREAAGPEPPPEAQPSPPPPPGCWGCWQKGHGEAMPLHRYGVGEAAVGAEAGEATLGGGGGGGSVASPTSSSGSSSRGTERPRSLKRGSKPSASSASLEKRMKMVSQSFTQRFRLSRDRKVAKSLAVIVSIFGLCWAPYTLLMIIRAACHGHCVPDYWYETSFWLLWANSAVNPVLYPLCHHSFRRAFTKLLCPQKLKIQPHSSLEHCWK

Kb, < 1 nM:
CC(C)N1CCC(Oc2ccc(C3CCN(C(=O)c4ccc(C#N)cc4)CC3)cc2)CC1 [Example E12, 4-{[4-(4-{[1-(1-Methylethyl)-4-piperidinyl]oxy}phenyl)-1-piperidinyl]carbonyl}benzonitrile]
CC(C)N1CCC(Oc2ccc(C3CCN(C(=O)c4ccc(C#N)nc4)CC3)cc2)CC1 [Example E51, 5-{[4-(4-{[1-(1-Methylethyl)-4-piperidinyl]oxy}phenyl)-1-piperidinyl]carbonyl}-2-pyridinecarbonitrile]
CC(C)N1CCC(Oc2ccc(C3CCN(C(=O)c4ccc(C(F)(F)F)nc4)CC3)cc2)CC1 [Example E52, 5-{[4-(4-{[1-(1-Methylethyl)-4-piperidinyl]oxy}phenyl)-1-piperidinyl]carbonyl}-2-(trifluoromethyl)pyridine]
